Experiment in all cases: CLSI broth dilution MIC determination
Type in all cases: cell-based
In general terms: Dilution methods test growth across graded concentrations, often in twofold steps.

Assay [1] relates to A. baumannii ATCC 19606. As to conditions: Acinetobacter baumannii, ATCC19606; A. baumannii ATCC 19606 (MP-15); read-out: MIC.
Assay [2] has as its system P. aeruginosa ATCC 27853. The following applies: Pseudomonas aeruginosa, ATCC27853; P. aeruginosa ATCC 27853 (MP-3); read-out: MIC.
Assay [3] relates to K. pneumoniae MP-548 clinical. As to conditions: Klebsiella pneumoniae, MP548CLINICAL, read-out: MIC.
In assay [4] the test system is K. pneumoniae ATCC 10031. The following applies: Klebsiella pneumoniae, ATCC10031, K. pneumoniae ATCC 10031 (MP-14); read-out: MIC.
In assay [5] the test system is P. aeruginosa MP-8 PAO1:mex (mex-oprM-deletion). As to conditions: Pseudomonas aeruginosa, PAO1.
Assay [6] has as its system A. baumannii MP-577 Clinical-AZT low. As to conditions: Acinetobacter baumannii, read-out: MIC.
Assay [7] relates to K. pneumoniae MP-546 Clinical-MDR. The following applies: Klebsiella pneumoniae, read-out: MIC.
Assay [8] deals with P. aeruginosa MP-7 PAO1. The following applies: Pseudomonas aeruginosa, read-out: MIC.
In assay [9] the test system is A. baumannii MP-576 Clinical-MDR. The following applies: Acinetobacter baumannii, read-out: MIC.
In assay [10] the test system is E. coli ATCC 25922. The following applies: Escherichia coli, ATCC25922, E. coli ATCC 25922 (MP-4); read-out: MIC. From the text:
(§1) MIC data was collected for the novel macrolides that this platform has produced against over 21 unique strains of B. subtilis, E. coli, S. aureus, S. pneumoniae, and H. influenzae, including several multidrug-resistant strains, with a special focus on macrolide resistant mechanisms (vide supra). Azithromycin (Azithro) and Solithromycin (Solithro) were included as a control macrolides in many cases. CLSI standard procedures for broth dilution MIC determination were used. […] These genotypes can be constitutive or inducible.

For assay [11], the system named is E. coli MP-9 ATCC25922:tolC. The following applies: Escherichia coli, ATCC25922.
From the text: as §1

For assay [12], the system named is S. aureus MRSA: USA300. The following applies: Staphylococcus aureus; S. aureus MRSA: USA300 (MP-549, msr(a)); read-out: MIC.
From the text: as §1

Assay [13] concerns E. coli MP-532 clinical-cErmB. The following applies: Escherichia coli.
From the text: as §1

The test system of assay [14] is S. aureus ATCC 29213. As to conditions: Staphylococcus aureus, ATCC29213; S. aureus ATCC 29213 (MP-12); read-out: MIC.
From the text: as §1

Assay [15] concerns S. aureus (MRSA) MP-513 ST-228 cErm (Clinical-cErm). The following applies: Staphylococcus aureus, read-out: MIC.
From the text: as §1

Assay [16] deals with S. aureus MP-17 ATCCBAA-977 (BAA 977 iErm). The following applies: Staphylococcus aureus; S. aureus MP-17, ATCCBAA-977, iErm; read-out: MIC.
From the text: as §1

For assay [17], the system named is E. coli MP-541 clinical. As to conditions: Escherichia coli, MP541CLINICAL, read-out: MIC.
From the text: as §1

Values after ≈ are worked out from the molar mass of the structure shown. Some results are limits rather than exact numbers.

The term MIC denotes the smallest concentration in the dilution series that meets the test's criterion for growth inhibition. As for `CC[C@H]1OC(=O)[C@@](C)(F)C(=O)[C@H](C)[C@@H](O[C@@H]2OC(C)CC(N(C)C)C2O)[C@](C)(OC)C[C@@H](C)C(=O)[C@H](C)[C@H]2N(CC#CCn3cc(-c4ncccn4)nn3)C(=O)O[C@]12C` (stereo partly shown) [FSM-22741], the MIC in [1] is 8 µg/mL (≈ 9.66 µM); in [2], over 64 µg/mL; in assay [3] it was 64 µg/mL (≈ 77.3 µM); in assay [4], 4 µg/mL (≈ 4.83 µM); in [5], 8 µg/mL (≈ 9.66 µM); in assay [6] it was 32 µg/mL (≈ 38.6 µM). For the same compound, the MIC in [7] was over 64 µg/mL; in assay [8] it was over 64 µg/mL; in assay [9], over 64 µg/mL; in assay [10] it was 16 µg/mL (≈ 19.3 µM); in assay [11] it was 4 µg/mL (≈ 4.83 µM); in assay [12], 0.25 µg/mL (≈ 0.302 µM). In addition, the MIC in [13] is over 64 µg/mL; in [14], 0.125 µg/mL (≈ 0.151 µM); in assay [15], over 64 µg/mL; in [16], 0.125 µg/mL (≈ 0.151 µM); in [17], 32 µg/mL (≈ 38.6 µM).

Take `CC[C@H]1OC(=O)[C@@](C)(F)C(=O)[C@H](C)[C@@H](O[C@@H]2OC(C)CC(N(C)C)C2O)[C@](C)(OC)C[C@@H](C)C(=O)[C@H](C)[C@H]2N(CC#CCn3cc(-c4cc(N)nc(N)n4)nn3)C(=O)O[C@]12C` (stereo partly shown) [FSM-22742]: the MIC is 16 µg/mL (≈ 18.6 µM) in [1]; 64 µg/mL (≈ 74.6 µM) in [2]; 64 µg/mL (≈ 74.6 µM) in [3]; 4 µg/mL (≈ 4.66 µM) in assay [4]; 8 µg/mL (≈ 9.32 µM) in assay [5]; 32 µg/mL (≈ 37.3 µM) in [6]. For the same compound, the MIC in assay [7] was over 64 µg/mL; in assay [8], 64 µg/mL (≈ 74.6 µM); in [9] it was over 64 µg/mL; in [10], 16 µg/mL (≈ 18.6 µM); in assay [11], 2 µg/mL (≈ 2.33 µM); in assay [12], 1 µg/mL (≈ 1.17 µM). Besides, the MIC in assay [13] was over 64 µg/mL; in assay [14], 0.5 µg/mL (≈ 0.583 µM); in assay [15] it was over 64 µg/mL; in assay [16] it was 1 µg/mL (≈ 1.17 µM); in assay [17], 16 µg/mL (≈ 18.6 µM).

Regarding `CC[C@H]1OC(=O)[C@@](C)(F)C(=O)[C@H](C)[C@@H](O[C@@H]2OC(C)CC(N(C)C)C2O)[C@](C)(OC)C[C@@H](C)C(=O)[C@H](C)[C@H]2N(CC#CCn3cc(-c4cc(N)ncn4)nn3)C(=O)O[C@]12C` (stereo partly shown) [FSM-22745], the MIC in assay [1] was 32 µg/mL (≈ 38 µM); in assay [2], over 64 µg/mL; in [3] it was over 64 µg/mL; in assay [4] it was 8 µg/mL (≈ 9.49 µM); in [5] it was 16 µg/mL (≈ 19 µM); in assay [6] it was 64 µg/mL (≈ 75.9 µM). The MIC in assay [7] is over 64 µg/mL; in assay [8], over 64 µg/mL; in assay [9], over 64 µg/mL; in [10], 32 µg/mL (≈ 38 µM); in assay [11] it was 4 µg/mL (≈ 4.75 µM); in assay [12] it was 1 µg/mL (≈ 1.19 µM). The MIC in [13] is over 64 µg/mL; in [14] it was 0.5 µg/mL (≈ 0.593 µM); in assay [15], over 64 µg/mL; in assay [16], 1 µg/mL (≈ 1.19 µM); in [17], 32 µg/mL (≈ 38 µM).

In the case of `CC[C@H]1OC(=O)[C@@](C)(F)C(=O)[C@H](C)[C@@H](O[C@@H]2OC(C)CC(N(C)C)C2O)[C@](C)(OC)C[C@@H](C)C(=O)[C@H](C)[C@H]2N(CC#CCn3cc(-c4cnccn4)nn3)C(=O)O[C@]12C` (stereo partly shown) [FSM-22746], the MIC in assay [1] was 16 µg/mL (≈ 19.3 µM); in assay [2], over 64 µg/mL; in [3], over 64 µg/mL; in assay [4] it was 8 µg/mL (≈ 9.66 µM); in assay [5], 16 µg/mL (≈ 19.3 µM); in assay [6], 64 µg/mL (≈ 77.3 µM). In addition, the MIC in [7] was over 64 µg/mL; in assay [8] it was over 64 µg/mL; in assay [9], over 64 µg/mL; in [10] it was 32 µg/mL (≈ 38.6 µM); in assay [11] it was 4 µg/mL (≈ 4.83 µM); in assay [12], 0.5 µg/mL (≈ 0.604 µM). In addition, the MIC in assay [13] is over 64 µg/mL; in assay [14] it was 0.25 µg/mL (≈ 0.302 µM); in assay [15] it was over 64 µg/mL; in assay [16] it was 0.25 µg/mL (≈ 0.302 µM); in assay [17], 64 µg/mL (≈ 77.3 µM).

For `CC[C@H]1OC(=O)[C@@](C)(F)C(=O)[C@H](C)[C@@H](O[C@@H]2OC(C)CC(N(C)C)C2O)[C@](C)(OC)C[C@@H](C)C(=O)[C@H](C)[C@H]2N(CC#CCn3cc(-c4cncc(N)n4)nn3)C(=O)O[C@]12C` (stereo partly shown) [FSM-22747], the MIC is 16 µg/mL (≈ 19 µM) in assay [1]; over 64 µg/mL in [2]; over 64 µg/mL in assay [3]; 8 µg/mL (≈ 9.49 µM) in [4]; 16 µg/mL (≈ 19 µM) in [5]; 32 µg/mL (≈ 38 µM) in [6]. Moreover, the MIC in assay [7] was over 64 µg/mL; in assay [8] it was over 64 µg/mL; in assay [9], over 64 µg/mL; in assay [10], 32 µg/mL (≈ 38 µM); in assay [11] it was 4 µg/mL (≈ 4.75 µM); in assay [12], 0.5 µg/mL (≈ 0.593 µM). For the same compound, the MIC in assay [13] was over 64 µg/mL; in [14], 0.25 µg/mL (≈ 0.297 µM); in [15], over 64 µg/mL; in assay [16] it was 0.25 µg/mL (≈ 0.297 µM); in assay [17] it was 32 µg/mL (≈ 38 µM).

Turning to `CC[C@H]1OC(=O)[C@@](C)(F)C(=O)[C@H](C)[C@@H](O[C@@H]2OC(C)CC(N(C)C)C2O)[C@](C)(OC)C[C@@H](C)C(=O)[C@H](C)[C@H]2N(CC#CCn3cc(-c4ccnc(N)n4)nn3)C(=O)O[C@]12C` (stereo partly shown) [FSM-22748], the MIC was determined as 16 µg/mL (≈ 19 µM) in assay [1]; 64 µg/mL (≈ 75.9 µM) in [2]; 64 µg/mL (≈ 75.9 µM) in [3]; 8 µg/mL (≈ 9.49 µM) in assay [4]; 16 µg/mL (≈ 19 µM) in assay [5]; 32 µg/mL (≈ 38 µM) in assay [6]. Also, the MIC in assay [7] was over 64 µg/mL; in assay [8] it was 64 µg/mL (≈ 75.9 µM); in assay [9], over 64 µg/mL; in assay [10], 16 µg/mL (≈ 19 µM); in assay [11], 4 µg/mL (≈ 4.75 µM); in [12], 0.25 µg/mL (≈ 0.297 µM). For the same compound, the MIC is over 64 µg/mL in [13]; 0.25 µg/mL (≈ 0.297 µM) in assay [14]; over 64 µg/mL in [15]; 0.25 µg/mL (≈ 0.297 µM) in [16]; 16 µg/mL (≈ 19 µM) in assay [17].

`CC[C@H]1OC(=O)[C@@](C)(F)C(=O)[C@H](C)[C@@H](O[C@@H]2OC(C)CC(N(C)C)C2O)[C@](C)(OC)C[C@@H](C)C(=O)[C@H](C)[C@H]2N(CC#CCn3cc(-c4nccc(N)n4)nn3)C(=O)O[C@]12C` (stereo partly shown) [FSM-22749]: the MIC in assay [1] is 32 µg/mL (≈ 38 µM); in [2], over 64 µg/mL; in assay [3] it was over 64 µg/mL; in [4], 16 µg/mL (≈ 19 µM); in [5], 16 µg/mL (≈ 19 µM); in assay [6], over 64 µg/mL. The MIC in [7] is over 64 µg/mL; in assay [8], over 64 µg/mL; in [9] it was over 64 µg/mL; in [10] it was 64 µg/mL (≈ 75.9 µM); in assay [11], 8 µg/mL (≈ 9.49 µM); in assay [12], 2 µg/mL (≈ 2.37 µM). In addition, the MIC in assay [13] was over 64 µg/mL; in assay [14], 2 µg/mL (≈ 2.37 µM); in [15], over 64 µg/mL; in assay [16], 2 µg/mL (≈ 2.37 µM); in [17], 64 µg/mL (≈ 75.9 µM).

As for `CC[C@H]1OC(=O)[C@@](C)(F)C(=O)[C@H](C)[C@@H](O[C@@H]2OC(C)CC(N(C)C)C2O)[C@](C)(OC)C[C@@H](C)C(=O)[C@H](C)[C@H]2N(CC#CCn3cc(-c4cc(F)nc(F)n4)nn3)C(=O)O[C@]12C` (stereo partly shown) [FSM-22750], the MIC in [1], in [2], in assay [3], in [4], in [5] and in [6] was over 64 µg/mL in each case. Also, the MIC in [7] was over 64 µg/mL; in [8], over 64 µg/mL; in assay [9], over 64 µg/mL; in assay [10], over 64 µg/mL; in assay [11], over 64 µg/mL; in assay [12], 8 µg/mL (≈ 9.26 µM). Further, the MIC in assay [13] is over 64 µg/mL; in [14], 4 µg/mL (≈ 4.63 µM); in assay [15], over 64 µg/mL; in [16] it was 8 µg/mL (≈ 9.26 µM); in assay [17], over 64 µg/mL.
